Data reported in patent publication US20260232691A1, “NBD1 MODULATORS AND METHODS OF USING THE SAME” (Sionna Therapeutics Inc., priority 2023, published 2026).

Tests used:
[1] = molecular target: T1, CFTR (primary human bronchial epithelial cells from a ΔF508 homozygous CF donor, CF-HBE cells) (Homo sapiens, UniProt P13569, DEL508-508); assay: TECC24 recording of CFTR-mediated transepithelial chloride transport, AUC fold over DMSO; assay type: cell-based; details: test agent AUC of forskolin-stimulated IEQ divided by vehicle (DMSO) AUC, 48 hours incubation
T1 construct: Primary human bronchial epithelial cells from a ΔF508 homozygous CF donor; host or cells: primary human bronchial epithelial cells (CF-HBE), ΔF508/ΔF508 donor
T1 sequence (P13569 with tags, fused parts or gaps DEL508-508): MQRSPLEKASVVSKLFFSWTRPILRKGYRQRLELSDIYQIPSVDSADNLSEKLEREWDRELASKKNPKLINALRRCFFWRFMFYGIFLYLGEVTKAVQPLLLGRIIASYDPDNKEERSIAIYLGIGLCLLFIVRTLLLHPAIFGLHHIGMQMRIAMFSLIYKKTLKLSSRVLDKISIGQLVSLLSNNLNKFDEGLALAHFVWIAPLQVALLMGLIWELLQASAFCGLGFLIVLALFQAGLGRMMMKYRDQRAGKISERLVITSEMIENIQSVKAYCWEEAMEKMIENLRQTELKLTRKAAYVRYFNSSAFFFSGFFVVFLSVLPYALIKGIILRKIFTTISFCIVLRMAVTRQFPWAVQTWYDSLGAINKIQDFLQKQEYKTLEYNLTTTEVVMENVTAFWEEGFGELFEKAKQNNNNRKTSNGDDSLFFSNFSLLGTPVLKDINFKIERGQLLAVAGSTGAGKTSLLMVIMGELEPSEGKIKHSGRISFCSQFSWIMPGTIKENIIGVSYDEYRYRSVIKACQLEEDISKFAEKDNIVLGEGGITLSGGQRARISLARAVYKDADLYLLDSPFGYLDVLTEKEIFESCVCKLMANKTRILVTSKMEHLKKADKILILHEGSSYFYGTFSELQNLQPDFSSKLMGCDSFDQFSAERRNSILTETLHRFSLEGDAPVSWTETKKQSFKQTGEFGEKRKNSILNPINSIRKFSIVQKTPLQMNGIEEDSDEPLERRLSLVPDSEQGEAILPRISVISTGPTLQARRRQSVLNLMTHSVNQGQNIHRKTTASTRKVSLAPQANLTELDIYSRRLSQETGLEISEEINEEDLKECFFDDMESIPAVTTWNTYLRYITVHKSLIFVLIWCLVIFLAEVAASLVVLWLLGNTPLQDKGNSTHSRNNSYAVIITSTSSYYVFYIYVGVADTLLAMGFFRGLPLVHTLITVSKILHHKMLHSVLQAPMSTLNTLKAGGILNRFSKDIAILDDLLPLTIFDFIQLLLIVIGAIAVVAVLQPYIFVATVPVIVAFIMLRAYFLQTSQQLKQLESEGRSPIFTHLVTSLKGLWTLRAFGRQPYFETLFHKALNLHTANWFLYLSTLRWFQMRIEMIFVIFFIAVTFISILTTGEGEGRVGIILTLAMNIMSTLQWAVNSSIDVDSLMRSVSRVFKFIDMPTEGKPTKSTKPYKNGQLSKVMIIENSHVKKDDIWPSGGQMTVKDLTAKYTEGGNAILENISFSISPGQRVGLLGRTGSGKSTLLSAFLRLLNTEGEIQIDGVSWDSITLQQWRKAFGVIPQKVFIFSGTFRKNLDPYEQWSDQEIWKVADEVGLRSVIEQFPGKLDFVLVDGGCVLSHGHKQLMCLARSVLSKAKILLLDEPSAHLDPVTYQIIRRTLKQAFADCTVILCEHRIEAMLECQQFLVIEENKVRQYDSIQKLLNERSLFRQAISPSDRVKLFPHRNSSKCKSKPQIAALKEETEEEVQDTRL
Procedure: The effects of a test agent on CFTR-mediated transepithelial chloride transport was measured using TECC24 recording analysis. Test agents were solubilized in DMSO. Solubilized test agents were mixed with incubation medium containing DMEM/F12, Ultroser G (2%; Crescent Chemical, catalog #67042), Hyclone Fetal Clone II (2%; GE Healthcare, catalog #SH30066.02), bovine brain extract (0.25%; Lonza, catalog #CC-4098), insulin ([…]), IL-13 (10 ng/mL), hydrocortisone (20 nM), transferrin ([…]), triiodothyronine (500 nM), ethanolamine (250 nM), epinephrine (1.5 μM), phosphoethanolamine (250 nM), and retinoic acid (10 nM). Primary human bronchial epithelial cells from a ΔF508 homozygous CF donor (CF-HBE cells; from University of North Carolina Cystic Fibrosis Tissue Procurement Center), grown on Transwell HTS 24-well cell culture inserts (Costar, catalog #3378), were exposed to test agents or controls dissolved in incubation medium. The CF-HBE cells were cultured at 36.5° C. for 48 hours before TECC24 recordings were performed in the presence or absence of test agent, a positive control or vehicle (DMSO).
Following incubation, the transwell cell culture inserts containing the test agent or control-treated CF-HBE cells were loaded onto a TECC24 apparatus (TECC v7 or MTECC v2; EP Design) to record the transepithelial voltage (VT) and resistance (TEER) using 4 AgCl electrodes per well configured in current-clamp mode. The apical and basolateral bath solutions both contained (in mM) 140 NaCl, 5 KCl, 2 CaCl2), 1 MgCl2, 10 Hepes, and 10 glucose (adjusted to pH 7.4 with NaOH). To inhibit basal Na+ absorption, the ENaC inhibitor benzamil (10 μM) was added to the bath. Then, the adenylate cyclase activator, forskolin (10 μM), was added to the bath to activate CFTR. The forskolin-stimulated Cl—transport was halted by addition of CFTR inhibitor-172 (20 μM) to the bath at the end of the experiment to confirm specificity. VT and TEER recordings were digitally acquired at routine intervals using TECC or MTECC software (EP Design). VT and TEER were transformed into equivalent transepithelial Cl—current (IEQ), and the Area Under the Curve (AUC) of the IEQ time course between forskolin and CFTR inhibitor-172 addition is generated using Excel (Microsoft). Efficacy is expressed as the ratio of the test agent AUC divided by vehicle AUC. EC50s based on AUC are generated using the non-linear regression log(agonist) vs. response function in Prism software (Graphpad) with HillSlope fixed=1.
If a test agent increased the AUC of the forskolin-stimulated IEQ relative to vehicle in CF-HBE cells, and this increase was inhibited by CFTR inhibitor-172, then the test agent was considered a CFTR corrector.

NBD1 = assay: Aggregation analysis using differential static light scattering (DSLS), thermal stability of NBD1; assay type: binding, Human; details: 100 μM compound; ΔTagg = Tagg minus average Tagg of DMSO control wells; purified recombinant NBD1
Procedure: Purified recombinant NBD1 was produced using previously described methods (A. Schmidt, J. L. Mendoza, P. J. Thomas (2011) Biochemical and Biophysical Approaches to Probe CFTR Structure (365-376) M. D. Amaral, K. Kunzelmann (eds.), Cystic Fibrosis, Methods in Molecular Biology 741, Springer Science+Business Media). The effect of test compounds on thermal stability of NBD1 was evaluated by differential static light scattering (DSLS) using the Harbinger Stargazer-384 instrument (Epiphyte Three, Toronto, Canada). Test compounds were dissolved and diluted to desired concentrations in 100% DMSO. The compounds or DMSO controls (100 nL) were stamped into wells of a […] low volume optical plate (Corning Inc., Corning, NY) using the Echo 555 acoustic liquid handler (Labcyte Inc., San Jose, CA).
NBD1 protein was diluted to 0.2 mg/ml in S200 buffer (50 mM Tris-HCl, 150 mM NaCl, 5 mM MgCl2, 2 mM ATP, 2 mM DTT, pH7.6) containing 1% glycerol. 10 uL of protein solution was aliquoted into the 384-well plate harboring the test compounds and 10 uL mineral oil was overlayed onto the protein solution, using the epMotion robotic liquid handler (Eppendorf North America, Hauppauge, NY). After placing into the Stargazer instrument, the plate was heated at 1° C. per minute to 70° C. Images were captured from 25° C. to 70° C. every 0.5° C. At the end of the experiment run, instrument software integrated image files and analyzed data automatically. A […] regression curve was generated for each well, representing the increase in light scattering over time. A temperature of aggregation (Tagg) was calculated based on the inflection point of the curve. To better compare data across experiments the average Tagg for DMSO control wells was calculated and subtracted from values for wells containing compounds to obtain a “ΔTagg” value. These ΔTagg values reflect stabilizing efficacy of the compounds.

| Structure (SMILES) | TECC24 @ 10 uM over DMSO [1] | DSLS NBD1/3D Human Stability delta-T (° C.) @ 100 (μM) (NBD1) |
| --- | --- | --- |
| C[C@@H](c1cccc(CCC(=O)O)c1F)c1cnc2n1CCc1ccc(Oc3c(F)cc4[nH]ccc4c3F)cc1-2 (single isomer, unassigned) [Example 5] | C (“C” refers to AUC @10 uM <= 4) | B (B: 4-8° C.) |
| CC(c1nc2n(n1)CCOc1ccc(Oc3c(F)cc4[nH]ccc4c3F)cc1-2)c1cccc(CCC(=O)O)c1F (single isomer, unassigned) [Example 15, 3-[3-[1-[10-[(4,6-difluoro-1H-indol-5-yl)oxy]-5,6-dihydro-[1,2,4]triazolo[1,5-d][1,4]benzoxazepin-2-yl]ethyl]-2-fluoro-phenyl]propanoic acid] | A (“A” refers to AUC @10 uM >= 12) | A (A: T ≥ 8° C.) |
| CC(c1nc2n(n1)CCCOc1ccc(Oc3c(F)cc4[nH]ccc4c3F)cc1-2)c1cccc(CCC(=O)O)c1F (stereo not shown) [Example 11, 3-[3-[1-[14-[(4,6-difluoro-1H-indol-5-yl)oxy]-10-oxa-3,5,6-triazatricyclo[9.4.0.02,6]pentadeca-1(15),2,4,11,13-pentaen-4-yl]ethyl]-2-fluoro-phenyl]propanoic acid] | C (“C” refers to AUC @10 uM <= 4) | A (A: T ≥ 8° C.) |
| O=C(O)CCc1cccc(Cc2nc3n(n2)Cc2ccc(Oc4c(F)cc5[nH]ccc5c4F)cc2-3)c1F [Example 4, 3-(3-((8-((4,6-difluoro-1H-indol-5-yl)oxy)-5H-triazolo[5,1-a]isoindol-2-yl)methyl)-2-fluorophenyl)propanoic acid] | B (“B” refers to AUC @ 10 uM between 4-12) | B (B: 4-8° C.) |
| CC(c1nc2n(n1)CC(O)COc1ccc(Oc3c(F)cc4[nH]ccc4c3F)cc1-2)c1cccc(CCC(=O)O)c1F (single isomer, unassigned) [Example 13, 3-[3-[1-[14-[(4,6-difluoro-1H-indol-5-yl)oxy]-8-hydroxy-10-oxa-3,5,6-triazatricyclo[9.4.0.02,6]pentadeca-1(15),2,4,11,13-pentaen-4-yl]ethyl]-2-fluoro-phenyl]propanoic acid] | C (“C” refers to AUC @10 uM <= 4) | A (A: T ≥ 8° C.) |
| CC(c1cccc(CCC(=O)O)c1F)c1cnc2c3cc(Oc4c(F)cc5[nH]ccc5c4F)ccc3ccn12 (stereo not shown) [Example 7, 3-(3-(1-(9-((4,6-difluoro-1H-indol-5-yl)oxy)imidazo[2,1-a]isoquinolin-3-yl)ethyl)-2-fluorophenyl)propanoic acid] | – | A (A: T ≥ 8° C.) |
| CC(c1nc2n(n1)CC(O)COc1ccc(Oc3c(F)cc4[nH]ccc4c3F)cc1-2)c1cccc(CCC(=O)O)c1F (single isomer, unassigned) [Example 14, 3-[3-[1-[14-[(4,6-difluoro-1H-indol-5-yl)oxy]-8-hydroxy-10-oxa-3,5,6-triazatricyclo[9.4.0.02,6]pentadeca-1(15),2,4,11,13-pentaen-4-yl]ethyl]-2-fluoro-phenyl]propanoic acid] | B (“B” refers to AUC @ 10 uM between 4-12) | A (A: T ≥ 8° C.) |
| COC(=O)CCc1cccc(C(C)c2nc3n(n2)CCCOc2ccc(Oc4c(F)cc5[nH]ccc5c4F)cc2-3)c1F (stereo not shown) [Example 10, methyl 3-(3-(1-(11-((4,6-difluoro-1H-indol-5-yl)oxy)-6,7-dihydro-5H-benzo[b][1,2,4]triazolo[5,1-d][1,5]oxazocin-2-yl)ethyl)-2-fluorophenyl)propanoate] | C (“C” refers to AUC @10 uM <= 4) | C (C: ≤ 4° C.) |
| CC(c1cn2c(n1)-c1cc(Oc3c(F)cc4[nH]ccc4c3F)ccc1CCC2)c1cccc(CCC(=O)O)c1F (stereo not shown) [Example 8, 3-(3-(1-(10-((4,6-difluoro-1H-indol-5-yl)oxy)-6,7-dihydro-5H-benzo[c]imidazo[1,2-a]azepin-2-yl)ethyl)-2-fluorophenyl)propanoic acid] | – | A (A: T ≥ 8° C.) |
| CC(c1nc2n(n1)CCCc1ccc(Oc3c(F)cc4[nH]ccc4c3F)cc1-2)c1cccc(CCC(=O)O)c1F (stereo not shown) [Example 9, 3-(3-(1-(10-((4,6-difluoro-1H-indol-5-yl)oxy)-6,7-dihydro-5H-benzo[c][1,2,4]triazolo[1,5-a]azepin-2-yl)ethyl)-2-fluorophenyl)propanoic acid] | – | B (B: 4-8° C.) |
| C[C@H](c1cccc(CC(=O)O)c1F)c1cnc2n1CCc1ccc(Oc3c(F)cc4[nH]ccc4c3F)cc1-2 (single isomer, unassigned) [Example 2] | – | A (A: T ≥ 8° C.) |
| C[C@H](c1cccc(CCC(=O)O)c1F)c1cnc2n1CCc1ccc(Oc3c(F)cc4[nH]ccc4c3F)cc1-2 (single isomer, unassigned) [Example 6] | A (“A” refers to AUC @10 uM >= 12) | A (A: T ≥ 8° C.) |
| CC(c1nc2n(n1)CCOc1ccc(Oc3c(F)cc4[nH]ccc4c3F)cc1-2)c1cccc(CCC(=O)O)c1F (single isomer, unassigned) [Example 16, 3-[3-[1-[10-[(4,6-difluoro-1H-indol-5-yl)oxy]-5,6-dihydro-[1,2,4]triazolo[1,5-d][1,4]benzoxazepin-2-yl]ethyl]-2-fluoro-phenyl]propanoic acid] | – | C (C: ≤ 4° C.) |
| C[C@@H](c1cccc(CC(=O)O)c1F)c1cnc2n1CCc1ccc(Oc3c(F)cc4[nH]ccc4c3F)cc1-2 (single isomer, unassigned) [Example 1] | – | A (A: T ≥ 8° C.) |
| CC(c1nc2n(n1)CC(CO)Oc1ccc(Oc3c(F)cc4[nH]ccc4c3F)cc1-2)c1cccc(CCC(=O)O)c1F (stereo not shown) [Example 12, 3-[3-[1-[10-[(4,6-difluoro-1H-indol-5-yl)oxy]-6-(hydroxymethyl)-5,6-dihydro-[1,2,4]triazolo[1,5-d][1,4]benzoxazepin-2-yl]ethyl]-2-fluoro-phenyl]propanoic acid] | – | A (A: T ≥ 8° C.) |
| CC(c1cccc(CC(=O)O)c1F)c1cnc2c3cc(Oc4c(F)cc5[nH]ccc5c4F)ccc3ccn12 (stereo not shown) [Example 3, 2-(3-(1-(9-((4,6-difluoro-1H-indol-5-yl)oxy)imidazo[2,1-a]isoquinolin-3-yl)ethyl)-2-fluorophenyl)acetic acid] | A (“A” refers to AUC @10 uM >= 12) | A (A: T ≥ 8° C.) |
